Assay results published in ChEMBL document CHEMBL1124307, “Synthesis and beta-adrenergic antagonism of 2-(aryloxy)-1-(2-piperidyl)ethanols” (J Med Chem, 1988).
Activity calls are given as the source filed them. The calls are words filed in the database; no cut-off is given here.

Species on record: Cavia porcellus
Experiment: Selectivity of inhibition at beta-1 versus beta-2 adrenergic receptors, […]
Conditions: not given

Compared with `CC(C)N(C)CC(O)COc1ccccc1` (stereo not drawn), `CC(C)NCC(O)COc1ccccc1` (stereo not drawn) is higher in Ratio: 2.2 for the first, 8.1 for the second.

Compared with `CC(C)NCC(O)COCCCc1ccccc1` (stereo not drawn), `CC(C)NCC(O)COCc1ccccc1` (stereo not drawn) is higher in Ratio: 0.5 for the first, 1 for the second.

Going from `CC(C)NCC(O)COc1ccc2ccccc2c1` (stereo not drawn) to `Cc1ccc(OCC(O)CNC(C)C)cc1` (stereo not drawn), the Ratio rises from 0.9 to 1.8.

Going from `CN1CCCC[C@@H]1[C@H](O)COc1ccccc1` to `CN1CCCC[C@H]1[C@H](O)COc1ccccc1` (relative stereo), the Ratio rises from 0.7 to 1.4.

First: Cc1cccc(OCC(O)CNC(C)C)c1 (stereo not drawn)
Second: Cc1cccc(OC[C@@H](O)[C@@H]2CCCCN2)c1 (relative stereo)
The Ratio of the first is higher: 6.5 for the first, 0.03 for the second.

First: Cc1ccc(OC[C@@H](O)[C@@H]2CCCCN2)cc1 (relative stereo)
Second: Cc1ccc(OC[C@@H](O)[C@H]2CCCCN2)cc1 (relative stereo)
The Ratio of the first is lower: 0.8 for the first, 1.2 for the second.

Going from `Cc1cccc(OC[C@@H](O)[C@H]2CCCCN2)c1` (relative stereo) to `O[C@H](COc1ccccc1)[C@@H]1CCCCN1` (relative stereo), the Ratio rises from 0.5 to 1.7.

First: O[C@H](COCCCc1ccccc1)[C@@H]1CCCCN1 (relative stereo)
Second: O[C@H](COCc1ccccc1)[C@@H]1CCCCN1 (relative stereo)
The Ratio of the first is lower: 0.1 for the first, 2.5 for the second.

Going from `O[C@H](COCc1ccccc1)[C@H]1CCCCN1` (relative stereo) to `O[C@H](COc1ccccc1)[C@H]1CCCCN1` (relative stereo), the Ratio rises from 0.4 to 0.7.

Going from `O[C@H](COc1ccc2ccccc2c1)[C@@H]1CCCCN1` (relative stereo) to `O[C@H](COc1ccc2ccccc2c1)[C@H]1CCCCN1` (relative stereo), the Ratio rises from 1.8 to 2.

Going from `O[C@H](COc1cccc2ccccc12)[C@@H]1CCCCN1` (relative stereo) to `O[C@H](COc1cccc2ccccc12)[C@H]1CCCCN1` (relative stereo), the Ratio rises from 0.4 to 0.7.

Species on record: Cavia porcellus
Experiment: Antagonism ([…] blocking activity) of isoprenaline-induced positive inotropic effect in guinea pig left atrium; Inactive
Format: functional
Conditions: Cardiac atrium

For `O[C@H](COCCCc1ccccc1)[C@H]1CCCCN1` (relative stereo), the pA2 was “inactive”.
